Consider 1 compound from patent US6943172B2, “Rho-kinase inhibitors” (Bayer Pharmaceuticals Corporation, priority 2002, dated 2005).

Each structure is given as a SMILES string.

With `CCc1cc(Nc2ccc(Sc3ccncc3)cc2)nc(N)n1` [Example 42, N-(2-amino-6-ethyl-4-pyrimidinyl)-N-[4-(4-pyridinylsulfanyl)phenyl]amine], the melting point was 181 to 186 °C.
